Test results: patent US11306078B2, “Piperidine CXCR7 receptor modulators” (IDORSIA PHARMACEUTICALS LTD., priority 2016, dated 2022)
pIC50: −log10 of the molar value.

Molecular target: human chemokine receptor CXCR7 (Homo sapiens (Human), UniProt P25106)
Assay: Tango CXCR7-bla U2OS beta-arrestin recruitment assay (beta-lactamase reporter, FRET), antagonism of CXCL12/SDF1-α;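 further: compounds preincubated 15 min before CXCL12 addition, then 22 h at 37 °C, FRET emission ratio read with CCF4-AM substrate after 2 h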
Assay type: cell-based
Settings: antagonistic effect on CXCR7; Tango CXCR7-bla U2OS cells, CXCL12/SDF1-α at its EC80

human chemokine receptor CXCR7, sequence (P25106 whole entry): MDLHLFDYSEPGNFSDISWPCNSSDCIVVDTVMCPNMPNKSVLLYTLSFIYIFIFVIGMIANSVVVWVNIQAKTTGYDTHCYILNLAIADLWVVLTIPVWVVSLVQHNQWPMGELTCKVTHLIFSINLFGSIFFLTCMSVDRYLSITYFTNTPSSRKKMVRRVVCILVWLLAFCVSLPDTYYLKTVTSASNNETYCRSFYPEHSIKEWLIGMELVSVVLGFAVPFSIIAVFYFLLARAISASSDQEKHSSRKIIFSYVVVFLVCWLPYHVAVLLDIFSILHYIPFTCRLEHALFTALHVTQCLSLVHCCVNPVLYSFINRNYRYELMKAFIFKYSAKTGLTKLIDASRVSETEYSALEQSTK

Row | Structure (SMILES) | pIC50
1 | C[C@@H](NC(=O)[C@@H]1CN(C2CCCC2)CC[C@H]1NC(=O)c1cc(-c2ccc(F)cc2F)no1)c1ccccn1 (relative stereo) [Example 1.126, (3R*,4R*)-1-Cyclopentyl-4-{[3-(2,4-difluoro-phenyl)-isoxazole-5-carbonyl]-amino}-piperidine-3-carboxylic acid ((R)-1-pyridin-2-yl-ethyl)-amide] | 7.31
2 | C[C@@H](NC(=O)[C@@H]1CN(C2CCCCC2)CC[C@H]1NC(=O)c1cn(-c2ccc(F)cc2F)nn1)c1cnccn1 (relative stereo) [Example 1.127, (3R*,4R*)-1-Cyclohexyl-4-{[1-(2,4-difluoro-phenyl)-1H-[1,2,3]triazole-4-carbonyl]-amino}-piperidine-3-carboxylic acid ((R)-1-pyrazin-2-yl-ethyl)-amide] | 6.44
3 | C[C@@H](NC(=O)[C@@H]1CN(C2CCCC2)CC[C@H]1NC(=O)c1cn(-c2ccc(F)cc2F)nn1)c1cnccn1 (relative stereo) [Example 1.128, (3R*,4R*)-1-Cyclopentyl-4-{[1-(2,4-difluoro-phenyl)-1H-[1,2,3]triazole-4-carbonyl]-amino}-piperidine-3-carboxylic acid ((R)-1-pyrazin-2-yl-ethyl)-amide] | 6.91
4 | C[C@@H](NC(=O)[C@@H]1CN(CC2CC2)CC[C@H]1NC(=O)c1cc(-c2c(F)cc(F)cc2F)on1)c1cnccn1 (relative stereo) [Example 1.131, (3R*,4R*)-1-Cyclopropylmethyl-4-{[5-(2,4,6-trifluoro-phenyl)-isoxazole-3-carbonyl]-amino}-piperidine-3-carboxylic acid ((R)-1-pyrazin-2-yl-ethyl)-amide] | 6.99
5 | C[C@@H]1CCC[C@H]1N1CC[C@@H](NC(=O)c2cc(-c3c(F)cc(F)cc3F)on2)[C@H](C(=O)N[C@H](C)c2cnccn2)C1 (relative stereo) [Example 1.132, (3R*,4R*)-1-((1RS,2RS)-2-Methyl-cyclopentyl)-4-{[5-(2,4,6-trifluoro-phenyl)-isoxazole-3-carbonyl]-amino}-piperidine-3-carboxylic acid ((R)-1-pyrazin-2-yl-ethyl)-amide] | 6.39
6 | C[C@@H](NC(=O)[C@@H]1CN(C2CCCCC2)CC[C@H]1NC(=O)c1cc(-c2ccc(F)cc2F)no1)c1cnccn1 (relative stereo) [Example 1.133, (3R*,4R*)-1-Cyclohexyl-4-{[3-(2,4-difluoro-phenyl)-isoxazole-5-carbonyl]-amino}-piperidine-3-carboxylic acid ((R)-1-pyrazin-2-yl-ethyl)-amide] | 6.23
7 | C[C@@H](NC(=O)[C@@H]1CN(C2CCCCC2)CC[C@H]1NC(=O)c1cn(-c2ccc(F)cc2F)nn1)C1CCC1 (relative stereo) [Example 1.134, (3R*,4R*)-1-Cyclohexyl-4-{[1-(2,4-difluoro-phenyl)-1H-[1,2,3]triazole-4-carbonyl]-amino}-piperidine-3-carboxylic acid ((R)-1-cyclobutyl-ethyl)-amide] | 6.58
8 | C[C@@H](NC(=O)[C@@H]1CN(C2CCCC2)CC[C@H]1NC(=O)c1cn(-c2ccc(F)cc2F)nn1)C1CCC1 (relative stereo) [Example 1.135, (3R*,4R*)-1-Cyclopentyl-4-{[1-(2,4-difluoro-phenyl)-1H-[1,2,3]triazole-4-carbonyl]-amino}-piperidine-3-carboxylic acid ((R)-1-cyclobutyl-ethyl)-amide] | 6.23
9 | C[C@@H](NC(=O)[C@@H]1CN(CC2CC2)CC[C@H]1NC(=O)c1cn(-c2ccc(F)cc2F)nn1)C1CCC1 (relative stereo) [Example 1.136, (3R*,4R*)-1-Cyclopropylmethyl-4-{[1-(2,4-difluoro-phenyl)-1H-[1,2,3]triazole-4-carbonyl]-amino}-piperidine-3-carboxylic acid ((R)-1-cyclobutyl-ethyl)-amide] | 6.69
10 | C[C@@H]1CCC[C@H]1N1CC[C@@H](NC(=O)c2cn(-c3ccc(F)cc3F)nn2)[C@H](C(=O)N[C@H](C)C2CCC2)C1 (relative stereo) [Example 1.137, (3R*,4R*)-4-{[1-(2,4-Difluoro-phenyl)-1H-[1,2,3]triazole-4-carbonyl]-amino}-1-((1RS,2RS)-2-Methyl-cyclopentyl)-piperidine-3-carboxylic acid ((R)-1-cyclobutyl-ethyl)-amide] | 6.04
11 | C[C@@H](NC(=O)[C@@H]1CN(CC2CC2)CC[C@H]1NC(=O)c1cc(-c2c(F)cc(F)cc2F)on1)C1CCC1 (relative stereo) [Example 1.139, (3R*,4R*)-1-Cyclopropylmethyl-4-{[5-(2,4,6-trifluoro-phenyl)-isoxazole-3-carbonyl]-amino}-piperidine-3-carboxylic acid ((R)-1-cyclobutyl-ethyl)-amide] | 7.30
12 | C[C@@H](NC(=O)[C@@H]1CN(C2CCCC2)CC[C@H]1NC(=O)c1cc(-c2ccc(F)cc2F)no1)C1CCC1 (relative stereo) [Example 1.141, (3R*,4R*)-1-Cyclopentyl-4-{[3-(2,4-difluoro-phenyl)-isoxazole-5-carbonyl]-amino}-piperidine-3-carboxylic acid ((R)-1-cyclobutyl-ethyl)-amide] | 6.42
13 | C[C@@H](NC(=O)[C@@H]1CN(CC2CC2)CC[C@H]1NC(=O)c1cc(-c2ccc(F)cc2F)no1)c1ccccn1 (relative stereo) [Example 1.154, (3R*,4R*)-1-Cyclopropylmethyl-4-{[3-(2,4-difluoro-phenyl)-isoxazole-5-carbonyl]-amino}-piperidine-3-carboxylic acid ((R)-1-pyridin-2-yl-ethyl)-amide] | 7.27
14 | C[C@@H]1CCC[C@H]1N1CC[C@@H](NC(=O)c2cc(-c3ccc(F)cc3F)no2)[C@H](C(=O)N[C@H](C)c2ccccn2)C1 (relative stereo) [Example 1.155, (3R*,4R*)-4-{[3-(2,4-Difluoro-phenyl)-isoxazole-5-carbonyl]-amino}-1-((1RS,2RS)-2-methyl-cyclopentyl)-piperidine-3-carboxylic acid ((R)-1-pyridin-2-yl-ethyl)-amide] | 6.50
15 | C[C@@H](NC(=O)[C@@H]1CN(C2CCCCC2)CC[C@H]1NC(=O)c1noc(-c2ccc(F)cc2F)n1)c1ccccn1 (relative stereo) [Example 1.156, (3R*,4R*)-1-Cyclohexyl-4-{[5-(2,4-difluoro-phenyl)-[1,2,4]oxadiazole-3-carbonyl]-amino}-piperidine-3-carboxylic acid ((R)-1-pyridin-2-yl-ethyl)-amide] | 7.04
16 | C[C@@H](NC(=O)[C@@H]1CN(C2CCCC2)CC[C@H]1NC(=O)c1noc(-c2ccc(F)cc2F)n1)c1ccccn1 (relative stereo) [Example 1.157, (3R*,4R*)-1-Cyclopentyl-4-{[5-(2,4-difluoro-phenyl)-[1,2,4]oxadiazole-3-carbonyl]-amino}-piperidine-3-carboxylic acid ((R)-1-pyridin-2-yl-ethyl)-amide] | 6.88
17 | C[C@@H](NC(=O)[C@@H]1CN(CC2CC2)CC[C@H]1NC(=O)c1noc(-c2ccc(F)cc2F)n1)c1ccccn1 (relative stereo) [Example 1.158, (3R*,4R*)-1-Cyclopropylmethyl-4-{[5-(2,4-difluoro-phenyl)-[1,2,4]oxadiazole-3-carbonyl]-amino}-piperidine-3-carboxylic acid ((R)-1-pyridin-2-yl-ethyl)-amide] | 7.09
18 | C[C@@H](NC(=O)[C@@H]1CN(CC2CC2)CC[C@H]1NC(=O)c1cc(-c2ccc(F)cc2F)no1)c1cnccn1 (relative stereo) [Example 1.159, (3R*,4R*)-1-Cyclopropylmethyl-4-{[3-(2,4-difluoro-phenyl)-isoxazole-5-carbonyl]-amino}-piperidine-3-carboxylic acid ((R)-1-pyrazin-2-yl-ethyl)-amide] | 6.09
19 | C[C@@H](NC(=O)[C@@H]1CN(CC2CC2)CC[C@H]1NC(=O)c1cc(-c2ccc(F)cc2F)no1)C1CCC1 (relative stereo) [Example 1.161, (3R*,4R*)-1-Cyclopropylmethyl-4-{[3-(2,4-difluoro-phenyl)-isoxazole-5-carbonyl]-amino}-piperidine-3-carboxylic acid ((R)-1-cyclobutyl-ethyl)-amide] | 6.98
20 | C[C@@H]1CCC[C@H]1N1CC[C@@H](NC(=O)c2cc(-c3ccc(F)cc3F)no2)[C@H](C(=O)N[C@H](C)C2CCC2)C1 (relative stereo) [Example 1.162, (3R*,4R*)-4-{[3-(2,4-Difluoro-phenyl)-isoxazole-5-carbonyl]-amino}-1-((1RS,2RS)-2-Methyl-cyclopentyl)-piperidine-3-carboxylic acid ((R)-1-cyclobutyl-ethyl)-amide] | 6.20
21 | C[C@@H]1CCC[C@H]1N1CC[C@@H](NC(=O)c2cn(-c3ccc(F)cc3F)nn2)[C@H](C(=O)NC2(c3ccccn3)CC2)C1 (relative stereo) [Example 1.168, (3R*,4R*)-4-{[1-(2,4-Difluoro-phenyl)-1H-[1,2,3]triazole-4-carbonyl]-amino}-1-((1RS,2RS)-2-Methyl-cyclopentyl)-piperidine-3-carboxylic acid (1-pyridin-2-yl-cyclopropyl)-amide] | 6.14
22 | C[C@@H]1CCC[C@H]1N1CC[C@@H](NC(=O)c2cc(-c3c(F)cc(F)cc3F)on2)[C@H](C(=O)NC2(c3ccccn3)CC2)C1 (relative stereo) [Example 1.172, (3R*,4R*)-1-((1RS,2RS)-2-Methyl-cyclopentyl)-4-{[5-(2,4,6-trifluoro-phenyl)-isoxazole-3-carbonyl]-amino}-piperidine-3-carboxylic acid (1-pyridin-2-yl-cyclopropyl)-amide] | 7.14
23 | C[C@@H]1CCC[C@H]1N1CC[C@@H](NC(=O)c2cc(-c3ccc(F)cc3F)no2)[C@H](C(=O)NC2(c3ccccn3)CC2)C1 (relative stereo) [Example 1.175, (3R*,4R*)-4-{[3-(2,4-Difluoro-phenyl)-isoxazole-5-carbonyl]-amino}-1-((1RS,2RS)-2-Methyl-cyclopentyl)-piperidine-3-carboxylic acid (1-pyridin-2-yl-cyclopropyl)-amide] | 6.17
